Assay results from publication PMC2847917 (The Journal of General Physiology, 2010).

Tests used:
P2X4 receptor [1] = biological target: T1, P2X4 receptor (Mus musculus, UniProt Q9JJX6); test: whole-cell voltage clamp, agonist-evoked inward current; format: cell-based
T1 sequence (Q9JJX6 1-388): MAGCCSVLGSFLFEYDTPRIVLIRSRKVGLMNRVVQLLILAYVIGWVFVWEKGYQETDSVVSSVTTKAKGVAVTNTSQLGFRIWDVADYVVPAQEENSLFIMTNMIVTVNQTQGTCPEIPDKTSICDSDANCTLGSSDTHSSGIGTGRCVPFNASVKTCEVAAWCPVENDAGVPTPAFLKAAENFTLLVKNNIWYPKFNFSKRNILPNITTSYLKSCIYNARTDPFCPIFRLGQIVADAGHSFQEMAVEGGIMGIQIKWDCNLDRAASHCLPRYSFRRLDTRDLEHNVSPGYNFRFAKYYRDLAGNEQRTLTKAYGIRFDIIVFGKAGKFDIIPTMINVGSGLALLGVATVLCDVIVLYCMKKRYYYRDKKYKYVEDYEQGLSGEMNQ

P2X4 receptor [2] = biological target: T1, P2X4 receptor; test: cell-based

whole-cell voltage clamp, agonist-evoked inward current (partial agonist) (P2X4 receptor [1]) | EC50 (P2X4 receptor [2]) [µM] | Structure (SMILES)
α,β-Methylene ATP was a partial agonist |  | Nc1ncnc2c1ncn2[C@@H]1O[C@H](COP(=O)(O)CP(=O)(O)OP(=O)(O)O)[C@@H](O)[C@H]1O [α,β-Methylene ATP]
 | 33 | Nc1ncnc2c1ncn2[C@@H]1O[C@H](COP(=O)(O)OP(=O)(O)OP(=O)(O)O)[C@@H](O)[C@H]1O [ATP]
